We go through four molecules from patent US20230338463A1, “ICD PEPTIDE AND USE THEREOF FOR HAVING CYTOTOXIC ACTIVITY ON CANCER CELLS” (NATIONAL TSING HUA UNIVERSITY, priority 2022, published 2023).

In data set [1] the test system is H1975 cells (non-small cell lung cancer). Particulars: 24 h. The text has this:
(§1) Three non-small cell lung cancer cell lines (H1975, A549, PC9) and two oral cancer cell lines (CGNHC9, OECM-1) were used in the present invention. H1975 is the non-small cell lung carcinoma tissue, A549 is the adenocarcinomic alveolar basal epithelial cells and PC9 is the non-small cell lung cancer with EGFR mutation. CGNHC9 and OECM-1 cell lines refer to oral squamous cell carcinoma and gingival epidermoid carcinoma respectively. The abovemetioned cell lines were derived from human origin and being cultured in the humidified incubator containing 5% CO2 at 37° C. CGNHC9 cell line was cultured in Dulbecco’s modified Eagle’s medium (GIBCO Life Technologies Corporation, NY, USA) with 10% fetal bovine serum (FBS), 2 mM L-glutamine and 1% penicillin/ streptomycin and Roswell Park Memorial Institute 1640 (RPMI 1640, GIBCO Life Technologies Corporation, NY, USA) medium with 10% fetal bovine serum (FBS), 2 mM L-glutamine and 1% penicillin/ streptomycin was used as the culture medium for the rest of the cell lines.
(§2) The anticancer activity of ICD peptides include, not limited, SEQ ID NO: 1 and its derivative peptides (SEQ ID NO: 2, SEQ ID NO: 3, SEQ ID NO: 4, and SEQ ID NO: 5) was using the 3-(4,5-Dimethyl-2-thiazolyl)-2,5-diphenyl-2H-tetrazolium bromide (MTT, Sigma Aldrich, St. Louis, MO, USA) colorimetric assay for cell viability test. The cells include, not limited, H1975, A549, PC9, CGNHC9, OECM-1, MN-11 and HFW cells/cell lines.
(§3) The cells were seeded in the 96-well plate at 5000 cells/well under the environment of humidified 5% CO2 and the temperature of 37° C. for 24 hours. The medium was removed from the well before the fresh medium containing different concentrations of ICD peptides was added and incubated for 24 hours. Medium with PBS solution was used as control group. All ICD peptides were diluted serially from 100 µM to 0.78 µM in ddH2O before adding in the medium. After 24 hours of ICD peptide treatment, fresh medium with 10% MTT solution (5 mg/mL) was incubated for additional 4 hours in advance of dissolving the formazan crystal in 100 µL DMSO (Dimethyl sulfoxide, Sigma Aldrich) solution. The calculation of cell survival rate was completed by measuring the absorbance at 570 nm using microplate reader (TECAN Sunrise ELISA Reader).
(§4) The cell survival was calculated from the treated cells relative to the control (100% viable cells) using the mean of three independent experiments and expressed as a 50% inhibitory concentration (IC50).
(§5) The percentage of cell viability was calculated using the following formula: […]
(§6) The half inhibition concentration (IC50) is the concentration required by the drug to reach fifty percent inhibition. In one embodiment, the SEQ ID NO: 1 and its derivative peptides (SEQ ID NO:2, SEQ ID NO:3, SEQ ID NO:4, SEQ ID NO: 5) was used for IC50 test via MTT colorimetric assay.

The subject of data set [2] is CGNHC9 cells (oral squamous cell carcinoma). The note with it: for cell viability percentage: human, 24 h.
Source text: as §1, §2, §3, §4, §5, §6

Data set [3] deals with OECM-1 cells (gingival epidermoid carcinoma). Particulars: for cell viability percentage: human, 24 h.
Source text: as §1, §2, §3, §4, §5, §6

Data set [4] relates to A549 cells (adenocarcinomic alveolar basal epithelial cells). Particulars: A549, MTT, 24 hours.
Source text: as §1, §2, §3, §4, §5, §6

Data set [5] has as its system PC9 cells (non-small cell lung cancer with EGFR mutation). The note with it: human, 24 h.
Source text: as §1, §2, §3, §4, §5, §6

The test system of data set [6] is MN-11 cells (murine fibrosarcoma). It is filed as cell-based. From the text:
Medium with PBS solution was used as control group.
Besides, MTT assay was used to test the cell viability of the murine fibrosarcoma MN-11 cell line. Among the peptides, Dip-P-113 had the lowest cytotoxicity against MN-11 cells (FIG. 1F).

A further data set has as its system MN-11 cell line. It is filed as cell-based, murine. Particulars: 2 h. Here is the method: Besides, evaluation of the killing kinetics of Nal-P-113, Bip-P-113 and Dip-P-113 for MN-11 was determined by MTT assay. Two-fold half 1inhibitory concentration (2 × IC50) was chosen for the experiments and the results were recorded at selected time points (30 mins, 1 hour, 2 hours and 4 hours). […] In 2 hours, the cell survival rate was near 50%.

Non-standard residues stand in square brackets, D forms with d. Residues, ends and D or L forms follow the SMILES beside them. Bip = N[C@@H](Cc1ccc(-c2ccccc2)cc1)C(=O)O; Dip = N[C@H](C(=O)O)C(c1ccccc1)c1ccccc1

With “Ac-AKRHHGYKRKFH-NH2 [SEQ ID NO: 1, Ac-AKR His His GYKRKF His-NH2]”, the IC50 came to 110 µM in data set [1]; 84.3 µM in data set [2] (CGNHC9, MTT, 24 hours); 141 µM in data set [3] (OECM-1, MTT, 24 hours); 107 µM in data set [4].
“Ac-AKRFFGYKRKFF-NH2 [SEQ ID NO:2, Ac-AKR Phe Phe GYKRKF Phe-NH2]” gave an IC50 in data set [1] of 107 µM.
Regarding `CC(=O)N[C@@H](C)C(=O)N[C@@H](CCCCN)C(=O)N[C@@H](CCCNC(=N)N)C(=O)N[C@H](C(=O)N[C@H](C(=O)NCC(=O)N[C@@H](Cc1ccc(O)cc1)C(=O)N[C@@H](CCCCN)C(=O)N[C@@H](CCCNC(=N)N)C(=O)N[C@@H](CCCCN)C(=O)N[C@@H](Cc1ccccc1)C(=O)N[C@H](C(N)=O)C(c1ccccc1)c1ccccc1)C(c1ccccc1)c1ccccc1)C(c1ccccc1)c1ccccc1` [SEQ ID NO: 5, Ac-AKR Dip Dip GYKRKFDip-NH2] (Ac-AKR[Dip][Dip]GYKRKF[Dip]-NH2), the IC50 in data set [1] is 100 µM; in data set [6] it was 59.8 ± 6.13 µM. Moreover, the cell viability percentage entry in data set [5], in data set [2] and in data set [3] was “lower than 20%” throughout. The molecule further came in with a cell survival rate in the data set with MN-11 cell line of about 50%.
As for `CC(=O)N[C@@H](C)C(=O)N[C@@H](CCCCN)C(=O)N[C@@H](CCCNC(=N)N)C(=O)N[C@@H](Cc1ccc(-c2ccccc2)cc1)C(=O)N[C@@H](Cc1ccc(-c2ccccc2)cc1)C(=O)NCC(=O)N[C@@H](Cc1ccc(O)cc1)C(=O)N[C@@H](CCCCN)C(=O)N[C@@H](CCCNC(=N)N)C(=O)N[C@@H](CCCCN)C(=O)N[C@@H](Cc1ccccc1)C(=O)N[C@@H](Cc1ccc(-c2ccccc2)cc1)C(N)=O` [SEQ ID NO:4, Ac-AKR Bip Bip GYKRKF Bip-NH2] (Ac-AKR[Bip][Bip]GYKRKF[Bip]-NH2), the cell viability percentage result in data set [5], in data set [2] and in data set [3] was “lower than 20%” each time. This molecule gave an IC50 in data set [6] of 12.1 ± 0.47 µM. The same molecule returned a cell survival rate with MN-11 cell line of about 50%.

Broadly, the IC50 is the point on the concentration scale where inhibition reaches its midpoint.
